{"source": "ChEMBL document CHEMBL1201862", "about": "“PubChem BioAssay data set” (2004)", "assay_in_all_cases": "inhibition of tumour cell growth, NCI panel, 48 h", "key": {"SR": {"system": "SR"}, "CCRF-CEM": {"system": "CCRF-CEM"}, "HCT-116": {"system": "HCT-116"}, "EKVX": {"system": "EKVX"}, "M14": {"system": "M14"}, "PC-3": {"system": "PC-3"}, "SN12C": {"system": "SN12C"}, "MOLT-4": {"system": "MOLT-4"}, "UACC-257": {"system": "UACC-257"}, "SF-539": {"system": "SF-539"}, "SNB-19": {"system": "SNB-19"}, "KM12": {"system": "KM12"}, "NCI-H460": {"system": "NCI-H460"}, "HL-60": {"system": "HL-60"}, "HCT-15": {"system": "HCT-15"}, "OVCAR-3": {"system": "OVCAR-3"}, "RXF 393": {"system": "RXF 393"}, "RPMI-8226": {"system": "RPMI-8226"}, "SK-MEL-28": {"system": "SK-MEL-28"}, "NCI-H23": {"system": "NCI-H23"}}, "note": "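Step 1: Grow cells in 96-well plates. Step 2: Expose to compound for 48 hours at 5 concentrations. Step 3: Interpolate endpoints linearly; if unreached, use highest concentration. GI50: concentration for 50% inhibition of growth.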 Activity calls are given as the source filed them. No stated cut-off is given here; in the data, active = GI50 up to about 1.1 µM and inactive = higher.", "data": [{"smiles": "C=C(CC[C@@H](C)[C@H]1CC[C@H]2[C@@H]3C[C@@H](O)[C@H]4C[C@@H](O)CC[C@]4(CO)[C@H]3CC[C@]12C)C(C)C", "values": [{"measurement": "GI50", "setting": "SR", "value": "2.71 µM (inactive)"}, {"measurement": "GI50", "setting": "CCRF-CEM", "value": "3.56 µM (inactive)"}, {"measurement": "GI50", "setting": "HCT-116", "value": "2.9 µM (inactive)"}, {"measurement": "GI50", "setting": "EKVX", "value": "2.1 µM (inactive)"}, {"measurement": "GI50", "setting": "M14", "value": "6.97 µM (inactive)"}, {"measurement": "GI50", "setting": "PC-3", "value": "4.94 µM (inactive)"}, {"measurement": "GI50", "setting": "SN12C", "value": "6.11 µM (inactive)"}, {"measurement": "GI50", "setting": "MOLT-4", "value": "3.3 µM (inactive)"}, {"measurement": "GI50", "setting": "UACC-257", "value": "7.46 µM (inactive)"}, {"measurement": "GI50", "setting": "SF-539", "value": "9.75 µM (inactive)"}, {"measurement": "GI50", "setting": "SNB-19", "value": "7.98 µM (inactive)"}, {"measurement": "GI50", "setting": "KM12", "value": "2.09 µM (inactive)"}, {"measurement": "GI50", "setting": "NCI-H460", "value": "2.18 µM (inactive)"}, {"measurement": "GI50", "setting": "HL-60", "value": "6.34 µM (inactive)"}, {"measurement": "GI50", "setting": "HCT-15", "value": 2.83, "unit": "µM"}, {"measurement": "GI50", "setting": "OVCAR-3", "value": "2.52 µM (inactive)"}, {"measurement": "GI50", "setting": "RXF 393", "value": "3.32 µM (inactive)"}, {"measurement": "GI50", "setting": "RPMI-8226", "value": "5.08 µM (inactive)"}, {"measurement": "GI50", "setting": "SK-MEL-28", "value": "4.1 µM (inactive)"}, {"measurement": "GI50", "setting": "NCI-H23", "value": "5.75 µM (inactive)"}]}, {"smiles": "Cc1nc(N)sc1/N=N/c1ccccc1Br", "values": [{"measurement": "GI50", "setting": "SR", "value": "35.2 µM (inactive)"}, {"measurement": "GI50", "setting": "CCRF-CEM", "value": "3.75 µM (inactive)"}, {"measurement": "GI50", "setting": "HCT-116", "value": "33.2 µM (inactive)"}, {"measurement": "GI50", "setting": "EKVX", "value": "18.3 µM (inactive)"}, {"measurement": "GI50", "setting": "M14", "value": "37.7 µM (inactive)"}, {"measurement": "GI50", "setting": "PC-3", "value": "33.3 µM (inactive)"}, {"measurement": "GI50", "setting": "SN12C", "value": "34.8 µM (inactive)"}, {"measurement": "GI50", "setting": "MOLT-4", "value": "> 52.2 µM (inactive)"}, {"measurement": "GI50", "setting": "UACC-257", "value": "32.9 µM (inactive)"}, {"measurement": "GI50", "setting": "SF-539", "value": "> 44.1 µM (inactive)"}, {"measurement": "GI50", "setting": "SNB-19", "value": "> 44.5 µM (inactive)"}, {"measurement": "GI50", "setting": "KM12", "value": "33.5 µM (inactive)"}, {"measurement": "GI50", "setting": "NCI-H460", "value": "22.9 µM (inactive)"}, {"measurement": "GI50", "setting": "HL-60", "value": "> 42.5 µM (inactive)"}, {"measurement": "GI50", "setting": "HCT-15", "value": 33.7, "unit": "µM"}, {"measurement": "GI50", "setting": "OVCAR-3", "value": "38.2 µM (inactive)"}, {"measurement": "GI50", "setting": "RXF 393", "value": "21.8 µM (inactive)"}, {"measurement": "GI50", "setting": "RPMI-8226", "value": "65.3 µM (inactive)"}, {"measurement": "GI50", "setting": "SK-MEL-28", "value": "33.1 µM (inactive)"}, {"measurement": "GI50", "setting": "NCI-H23", "value": "28.2 µM (inactive)"}]}, {"smiles": "O=C(OCCN1CCCCC1)C(c1ccccc1)C1(O)CCSCC1", "note": "(stereo not given)", "values": [{"measurement": "GI50", "setting": "SR", "value": "> 100 µM (inactive)"}, {"measurement": "GI50", "setting": "CCRF-CEM", "value": "> 100 µM (inactive)"}, {"measurement": "GI50", "setting": "HCT-116", "value": "> 100 µM (inactive)"}, {"measurement": "GI50", "setting": "EKVX", "value": "> 100 µM (inactive)"}, {"measurement": "GI50", "setting": "M14", "value": "> 100 µM (inactive)"}, {"measurement": "GI50", "setting": "PC-3", "value": "> 100 µM (inactive)"}, {"measurement": "GI50", "setting": "SN12C", "value": "> 100 µM (inactive)"}, {"measurement": "GI50", "setting": "MOLT-4", "value": "> 100 µM (inactive)"}, {"measurement": "GI50", "setting": "UACC-257", "value": "> 100 µM (inactive)"}, {"measurement": "GI50", "setting": "SF-539", "value": "> 100 µM (inactive)"}, {"measurement": "GI50", "setting": "SNB-19", "value": "> 100 µM (inactive)"}, {"measurement": "GI50", "setting": "KM12", "value": "> 100 µM (inactive)"}, {"measurement": "GI50", "setting": "NCI-H460", "value": "> 100 µM (inactive)"}, {"measurement": "GI50", "setting": "HL-60", "value": "> 100 µM (inactive)"}, {"measurement": "GI50", "setting": "HCT-15", "value": "> 100", "unit": "µM"}, {"measurement": "GI50", "setting": "OVCAR-3", "value": "> 100 µM (inactive)"}, {"measurement": "GI50", "setting": "RXF 393", "value": "> 100 µM (inactive)"}, {"measurement": "GI50", "setting": "RPMI-8226", "value": "> 100 µM (inactive)"}, {"measurement": "GI50", "setting": "SK-MEL-28", "value": "> 100 µM (inactive)"}, {"measurement": "GI50", "setting": "NCI-H23", "value": "> 100 µM (inactive)"}]}, {"smiles": "CN(C)Cc1c(O)ccc2c1c1c(n2C)C(=O)c2ccccc2C1=O", "values": [{"measurement": "GI50", "setting": "SR", "value": "1.06 µM (active)"}, {"measurement": "GI50", "setting": "CCRF-CEM", "value": "0.492 µM (active)"}, {"measurement": "GI50", "setting": "HCT-116", "value": "9.95 µM (inactive)"}, {"measurement": "GI50", "setting": "EKVX", "value": "13.5 µM (inactive)"}, {"measurement": "GI50", "setting": "M14", "value": "11.2 µM (inactive)"}, {"measurement": "GI50", "setting": "PC-3", "value": "3.9 µM (inactive)"}, {"measurement": "GI50", "setting": "SN12C", "value": "3.62 µM (inactive)"}, {"measurement": "GI50", "setting": "MOLT-4", "value": "0.544 µM (active)"}, {"measurement": "GI50", "setting": "UACC-257", "value": "5.24 µM (inactive)"}, {"measurement": "GI50", "setting": "SF-539", "value": "10.3 µM (inactive)"}, {"measurement": "GI50", "setting": "SNB-19", "value": "6.19 µM (inactive)"}, {"measurement": "GI50", "setting": "KM12", "value": "3.2 µM (inactive)"}, {"measurement": "GI50", "setting": "NCI-H460", "value": "1.85 µM (inactive)"}, {"measurement": "GI50", "setting": "HL-60", "value": "7.38 µM (inactive)"}, {"measurement": "GI50", "setting": "HCT-15", "value": 4.49, "unit": "µM"}, {"measurement": "GI50", "setting": "OVCAR-3", "value": "4.75 µM (inactive)"}, {"measurement": "GI50", "setting": "RXF 393", "value": "12.4 µM (inactive)"}, {"measurement": "GI50", "setting": "RPMI-8226", "value": "2.67 µM (inactive)"}, {"measurement": "GI50", "setting": "SK-MEL-28", "value": "4.69 µM (inactive)"}, {"measurement": "GI50", "setting": "NCI-H23", "value": "5.12 µM (inactive)"}]}, {"smiles": "COc1cc(-c2ccc(Nc3ccccc3C(=O)O)c(OC)c2)ccc1Nc1ccccc1C(=O)O", "values": [{"measurement": "GI50", "setting": "SR", "value": "0.557 µM (active)"}, {"measurement": "GI50", "setting": "CCRF-CEM", "value": "2.38 µM (inactive)"}, {"measurement": "GI50", "setting": "HCT-116", "value": "0.792 µM (active)"}, {"measurement": "GI50", "setting": "EKVX", "value": "58.7 µM (inactive)"}, {"measurement": "GI50", "setting": "M14", "value": "26.5 µM (inactive)"}, {"measurement": "GI50", "setting": "PC-3", "value": "2 µM (inactive)"}, {"measurement": "GI50", "setting": "SN12C", "value": "9.91 µM (inactive)"}, {"measurement": "GI50", "setting": "MOLT-4", "value": "1.13 µM (inactive)"}, {"measurement": "GI50", "setting": "UACC-257", "value": "20.5 µM (inactive)"}, {"measurement": "GI50", "setting": "SF-539", "value": "5.45 µM (inactive)"}, {"measurement": "GI50", "setting": "SNB-19", "value": "10.2 µM (inactive)"}, {"measurement": "GI50", "setting": "KM12", "value": "7.53 µM (inactive)"}, {"measurement": "GI50", "setting": "NCI-H460", "value": "1.94 µM (inactive)"}, {"measurement": "GI50", "setting": "HL-60", "value": "1.91 µM (inactive)"}, {"measurement": "GI50", "setting": "HCT-15", "value": 0.619, "unit": "µM"}, {"measurement": "GI50", "setting": "OVCAR-3", "value": "20.6 µM (inactive)"}, {"measurement": "GI50", "setting": "RXF 393", "value": "21.2 µM (inactive)"}, {"measurement": "GI50", "setting": "RPMI-8226", "value": "2.33 µM (inactive)"}, {"measurement": "GI50", "setting": "SK-MEL-28", "value": "33.8 µM (inactive)"}, {"measurement": "GI50", "setting": "NCI-H23", "value": "18.3 µM (inactive)"}]}]}
